# Source: patent US20080319184A1, “Uses of Dinucleotide Polyphosphate Derivatives” (priority 2005, published 2008)
# “Also recorded” adds a separate entry of the source. Where two headings read alike, the source gives them in different places.
# Legend:
# [1] = tested on: orthodromically evoked field potentials in CA1 zone of rat hippocampal slices; conditions: cited from earlier work
# [2] = tested on: excitatory postsynaptic currents in CA1 pyramidal neuron; conditions: cited from earlier work
# [3] = tested on: orthodromically evoked field potentials in CA1 zone of rat hippocampal slices; assay: Orthodromically induced population spikes (field potentials) in CA1 zone of rat hippocampal slices; assay type: cell-based; conditions: for inhibition of orthodromically evoked field potentials by known P2X/P2Y agonists: in the same way as AppCH2ppA, FIG. 8, FIG. 9
# Protocol: This study was carried out on 21-day old Wistar rats (WAG/GSto, Moscow, Russia). After rapid decapitation, rat brains were immediately transferred to a Petri dish with chilled (4° C.) solution of the composition 120 mM NaCl, 5 mM KCl, 26 mM NaHCO3, 2 mM MgCl2 and 20 mM glucose. Calcium salts were omitted to reduce possible neuronal damage. The solution was constantly bubbled with 95%O2/5%CO2 gas mixture to maintain pH7.4. Hippocampal slices ([…] thick) were cut manually with a razor blade along the alveolar fibres to preserve the lamellar structure of excitatory connections. During preincubation and experiments, the slices were kept fully submerged in the extracellular solution, pH7.4, comprised of 135 mM NaCl, 5 mM KCl, 26 mM NaHCO3, 1.5 mM CaCl2, 1.5 mM MgCl2, and 20 mM glucose, subjected to continuous bubbling with 95% O2/5% CO2) at 30-31° C. […] (RBI, Natick, Mass., USA) was also included into the extracellular solution during experiments to suppress the inhibitory activity of interneurons. Electrophysiological measurements were recording after at least 2 h of preincubation.
# Excitatory postsynaptic currents (EPSCs) were recorded by a standard whole-cell patch clamp technique in the CA1 subfield of the hippocampus in response to stimulation of the Schaffer collateral/commissural pathway. To prevent the spread of electrical activity from area CA3, mini-slices were prepared by making a cut orthogonal to the stratum pyramidale extending to the mossy fibre layer. The intracellular solution, pH 7.2, for patch pipettes was comprised of 100 mM CsF (Merck, Darmstadt, FRG), 40 mM NaH2PO4, 10 mM HEPES-CsOH, 10 mM Tris-HCl. […] Access resistance was monitored throughout the experiments and ranged typically from 6 to 9MΩ. […] Extracellular field potentials were recorded using Ni/Cr electrodes. […] The effects of receptor agonists of antagonists were measured as the mean ratio I/Io where I was the current under the substances action and Io was the current in control saline. […]
# [4] = tested on: excitatory postsynaptic currents in CA1 pyramidal neuron; assay: Excitatory postsynaptic currents (EPSCs), whole-cell patch clamp in CA1 pyramidal neuron of hippocampal slices; assay type: cell-based, rat
# Protocol: (§1) This study was carried out on 21-day old Wistar rats (WAG/GSto, Moscow, Russia). After rapid decapitation, rat brains were immediately transferred to a Petri dish with chilled (4° C.) solution of the composition 120 mM NaCl, 5 mM KCl, 26 mM NaHCO3, 2 mM MgCl2 and 20 mM glucose. Calcium salts were omitted to reduce possible neuronal damage. The solution was constantly bubbled with 95%O2/5%CO2 gas mixture to maintain pH7.4. Hippocampal slices ([…] thick) were cut manually with a razor blade along the alveolar fibres to preserve the lamellar structure of excitatory connections. […]
# (§2) Excitatory postsynaptic currents (EPSCs) were recorded by a standard whole-cell patch clamp technique in the CA1 subfield of the hippocampus in response to stimulation of the Schaffer collateral/commissural pathway. […] Access resistance was monitored throughout the experiments and ranged typically from 6 to 9MΩ. […] Extracellular field potentials were recorded using Ni/Cr electrodes. […] The effects of receptor agonists of antagonists were measured as the mean ratio I/Io where I was the current under the substances action and Io was the current in control saline. […]
# [5] = tested on: CFA-induced thermal hyperalgesia; assay: CFA-induced thermal hyperalgesia (Plantar test, paw withdrawal latency); assay type: in vivo, rat
# Protocol: CFA-Induced Thermal Hyperalgesia. Unilateral inflammation was induced by injecting 100 μl of 50% solution of CFA (Sigma) in physiological saline into the plantar surface of the right hind paw of the rat. The hyperalgesia to thermal stimulation was determined 48 h after CFA injections using the same apparatus as described below for the noxious acute thermal assay.
# Thermal sensitivity: On each day following mechanical testing, rats will be placed in a thermal testing apparatus (Plantar test, Ugo Basile, Italy), in which they will be free to move. After 30 min of acclimatization, a constant-power IR stimulus will be focused through the glass base on to the sole of the foot, and the latency for reflex foot withdrawal will be recorded automatically via a photoelectric monitor as previously described Hargreaves et al. 1988.
# In each test session, each rat (from 6 tested rats) was tested in three sequential trials at approximately 15 min intervals.
# [6] = tested on: NMDA-receptor-mediated channels; assay: NMDA-activated current in isolated hippocampal pyramidal neurons (whole-cell patch clamp); assay type: cell-based, rat
# Protocol: NMDA-receptor-activated currents were evoked by 1-2 sec long co-application of aspartate (ASP) (1 mM) and glycine (10 μM). Vh=−100 mV in Mg^2+ free solution.
# Wistar rats (12-17-days old) were decapitated under ether anaesthesia and the hippocampus (or cerebellum) was removed. It was cut into slices (300-500 μm) in a solution containing (in mM): 150 NaCl; 5 KCl; 1.25 NaH2PO4; 26 NaHCO3; 1.1 MgCl2; 10 glucose; pH 7.4. Then the slices were incubated for 10 min at 32° C. with 0.5 mg/ml of protease (type XXIII) from Aspergillus oryzae. Single pyramidal cells from CA1 and CA3 stratum pyramidale layers were isolated by vibrodissociation locally in the stratum pyramidale CA3 and CA1 hippocampal pyramidal neurons were identified by their characteristic form and partially preserved dendritic arborisation.
# After isolation the cells were usually suitable for recordings for 2-4 h. Throughout the entire procedure the solutions with the slices were continuously saturated with 95% O2 and 5% CO2 gas mixture to maintain pH 7.4. The tested substances were dissolved in DMSO to a stock concentration of 10 mM and kept frozen at −40° C. in daily aliquots. The substances were dissolved in external saline to their final concentration immediately before the experiments.
# NMDA-activated currents in isolated neurons were induced by the step application of aspartate (1 mM) and […] in the “concentration clamp” mode (Krishtal et al., 1983), using the computerized “Pharma-Robot” set-up (Pharma-Robot, Kiev). This equipment allows a complete change of saline within 15 ms. Transmembrane currents were recorded using a conventional patch-clamp technique, in the whole-cell configuration. […] The intracellular solution contained (in mM): 70 Tris-PO4; 5 EGTA; 40 TEA-Cl (tetraethylammonium chloride); 30 Tris-Cl; 5 Mg-ATP; 0.5 GTP; pH 7.2. The composition of extracellular solution was (in mM):. 130 NaCl; 3 CaCl2; 5 KCl; 2 MgCl2; 10 HEPES-NaOH; 0.1 μM TTX; pH 7.4. Recording of the currents was performed using patch-clamp amplifiers (DAGAN, USA). Transmembrane currents were filtered at 3 kHz, stored and analysed with an IBM-PC computer using homemade software. NMDA responses were recorded with a 3 min interval. All experiments were performed at room temperature (19-24° C.).
# [7] = tested on: orthodromically evoked field potentials in CA1 zone of rat hippocampal slices; assay: Orthodromically induced population spikes (field potentials) in CA1 zone of rat hippocampal slices; assay type: cell-based
# [8] = tested on: antidromically induced population spikes in CA1 zone of rat hippocampal slices; assay: Antidromically induced population spikes in CA1 zone of rat hippocampal slices; assay type: cell-based
# Protocol: as §1, §2
smiles,measurement,setting,value
Nc1ncnc2c1ncn2[C@@H]1O[C@H](CO)[C@@H](O)[C@H]1O [adenosine],effect on orthodromic spikes,"[1]; 5 μM, shown previously (literature)",inhibit
same,effect on EPSC amplitudes,[2]; shown previously (literature),diminish
"Nc1ncnc2c1ncn2[C@@H]1O[C@H](COP(=O)(O)CP(=O)(O)OP(=O)(O)O)[C@@H](O)[C@H]1O [α,β-methylene-ATP]",inhibition of orthodromically evoked field potentials by known P2X/P2Y agonists,[3],unable to inhibit
Nc1ncnc2c1ncn2[C@@H]1O[C@H](COP(=O)(O)OP(=O)(O)CP(=O)(O)OP(=O)(O)OC[C@H]2O[C@@H](n3cnc4c(N)ncnc43)C(O)C2O)C(O)C1O (stereo partly shown) [AppCH2ppA],effect on orthodromically evoked field potentials,"[3]; 1.9, 3.7 and 7.4 μm applied in steps, all synaptic pathways incl. CA3-CA1 synapses (FIG. 5A)",fast and reversible inhibition
same,EPSC decay,[4]; FIG. 5C,unchanged
same,amplitudes of EPSCs,"[4]; recorded in CA1 pyramidal neuron, 1.9-7.4 μm (FIG. 5C)",remained unchanged
same,CFA-induced thermal hyperalgesia,[5]; 50 μmol/kg s.c.,attenuates
same,"thermal hyperalgesia, contra lateral paw",[5]; 50 μmol/kg s.c. (FIG. 18),attenuates
same,"paw withdrawal latencies, contra lateral (non-inflamed) paw",[5]; 48 h (FIG. 18),increases
same,"paw withdrawal latencies, CFA-injected paw",[5]; 48 h after intraplantar CFA (FIG. 17),increases
same,paw withdrawal latencies for the uninjured paw,"[5]; at the doses tested, compared with injured paw",less effectively altered
same,"thermal hyperalgesia, injured paw","[5]; s.c. administration, 48 h after intraplantar CFA (FIG. 17)",evidently potent; also recorded: fully blocked
same,onset of antinociceptive effects in the injured paw after injection,"[5]; s.c., injured paw",3 h
same,effect on NMDA-activated current in presence of reactive blue,[6]; P2Y receptor antagonist reactive blue,eliminated
same,effect on NMDA-activated current in presence of EDTA,[6]; chelator of bivalent cations EDTA,removed
same,amplitude of the NMDA-activated current,"[6]; low micromolar concentrations, concentration-dependent manner",increased
same,effect on NMDA-activated current after pre-treatment with genestein,[6]; non-specific tyrosine protein kinase inhibitor genestein,abolished
same,effect on NMDA-activated current in presence of PPADS,[6]; purine P2 receptor antagonist PPADS,eliminated
same,effect on amplitude of orthodromically induced population spikes in presence of Ip4I,"[7]; Ip4I 20 μM, then 7.4 μM (FIG. 10)",did hot alter
same,blocking effect on the orthodromic spikes in presence of PPADS,[7]; PPADS 20 μM applied first (FIG. 6),completely abolished
same,reduction by PTIO of the extent of inhibition of orthodromically evoked field potentials,"[7]; PTIO 1 mM, then 2.5 μM (FIG. 12)",over 50%
same,inhibition of orthodromically evoked field potentials in presence of adenosine deaminase,"[7]; adenosine deaminase approx. 2 U/ml, then 7.4 μM",eliminated
same,inhibition of orthodromically evoked field potentials in presence of bicuculine,"[7]; bicuculine 50 μM, then 7.4 μM",unaffected
same,inhibition of orthodromically evoked field potentials in presence of CPT,"[7]; cyclopentyl teophylline (CPT) 1 μM, then 7.4 μM (FIG. 7)",eliminated
same,inhibition of orthodromically evoked field potentials in presence of hexamethonium,"[7]; hexamethonium 100 μM, then 7.4 μM",unaffected
same,inhibition of orthodromically evoked field potentials in presence of strychnine,"[7]; strychnine 500 nM, then 7.4 μM",unaffected
same,amplitudes of antidromic spikes,"[8]; CA3-CA1 synapses, 1.9-7.4 μm (FIG. 5B)",remained unchanged
same,effect on amplitude of antidromically induced population spikes in presence of Ip4I,"[8]; Ip4I 20 μM, then 7.4 μM (FIG. 11)",did not cause AppCH2ppA to have an effect
Nc1ncnc2c1ncn2[C@@H]1O[C@H](COP(=O)(O)OP(=O)(O)OP(O)(O)=S)[C@@H](O)[C@H]1O [ATPγS],inhibition of orthodromically evoked field potentials by known P2X/P2Y agonists,[3],unable to inhibit
"Nc1ncnc2c1ncn2[C@@H]1O[C@H](COP(=O)(O)OP(=O)(O)OP(=O)(O)OP(=O)(O)OC[C@H]2O[C@@H](n3cnc4c(N)ncnc43)[C@H](O)[C@@H]2O)[C@@H](O)[C@H]1O [Ap4A, diadenosine 5′,5′″-P^1,P^4-tetraphosphate]",effect on orthodromically evoked field potentials,[1]; literature,inhibition
same,effect on excitatory postsynaptic currents,[2]; literature,inhibition
